From ChEMBL document CHEMBL5608198 (Eur J Med Chem, 2024)
The source made the active and inactive calls. No cut-off for these calls is given here.

Test system: PBMC
Test: Effect on cell proliferation of human PBMC into human Vgamma9Vdelta2 T cells assessed as decrease in HMBPP response upto 100 uM incubated for 3 days followed by compound washout with recurrent addition of IL-2 on every 3 days measured after 11 days in presence of HMBPP by flow cytometry
Type: functional, cell-based
Conditions: time 3.0 day

Structure (SMILES)	Activity
Cc1ccc(C/C(=C\COP(=O)(O)OP(=O)(O)O)CO)cc1	Active
O=P(O)(O)OP(=O)(O)OC/C=C(/CO)Cc1ccccc1	Active
O=P(O)(O)OP(=O)(O)OC/C=C(/CO)Cc1ccc(Br)cc1	Active
